3 compounds from ChEMBL document CHEMBL6109169, “1,6-Naphthridine Compounds as SMARCA2 Inhibitors for Treating Non-small Cell Lung Cancer” (ACS Med Chem Lett, 2025) can be followed below.

Molecules are shown by their SMILES.

The target in the assay is SWI/SNF-related matrix-associated actin-dependent regulator of chromatin subfamily A member 2 (Homo sapiens, UniProt P51531). The assay can be described thus: Inhibition of N-terminal hexa-histidine-tagged truncated human SMARCA2 (470 to 1590 residues) extracted from Sf9 insect cells using poly(dA-dT) linear dsDNA as substrate preincubated for 30 mins followed by substrate/ATP addition measured after 180 mins by ADP-Glo assay. It is filed as cell-free.
SWI/SNF-related matrix-associated actin-dependent regulator of chromatin subfamily A member 2, sequence (P51531 whole entry, the tested form may be a part): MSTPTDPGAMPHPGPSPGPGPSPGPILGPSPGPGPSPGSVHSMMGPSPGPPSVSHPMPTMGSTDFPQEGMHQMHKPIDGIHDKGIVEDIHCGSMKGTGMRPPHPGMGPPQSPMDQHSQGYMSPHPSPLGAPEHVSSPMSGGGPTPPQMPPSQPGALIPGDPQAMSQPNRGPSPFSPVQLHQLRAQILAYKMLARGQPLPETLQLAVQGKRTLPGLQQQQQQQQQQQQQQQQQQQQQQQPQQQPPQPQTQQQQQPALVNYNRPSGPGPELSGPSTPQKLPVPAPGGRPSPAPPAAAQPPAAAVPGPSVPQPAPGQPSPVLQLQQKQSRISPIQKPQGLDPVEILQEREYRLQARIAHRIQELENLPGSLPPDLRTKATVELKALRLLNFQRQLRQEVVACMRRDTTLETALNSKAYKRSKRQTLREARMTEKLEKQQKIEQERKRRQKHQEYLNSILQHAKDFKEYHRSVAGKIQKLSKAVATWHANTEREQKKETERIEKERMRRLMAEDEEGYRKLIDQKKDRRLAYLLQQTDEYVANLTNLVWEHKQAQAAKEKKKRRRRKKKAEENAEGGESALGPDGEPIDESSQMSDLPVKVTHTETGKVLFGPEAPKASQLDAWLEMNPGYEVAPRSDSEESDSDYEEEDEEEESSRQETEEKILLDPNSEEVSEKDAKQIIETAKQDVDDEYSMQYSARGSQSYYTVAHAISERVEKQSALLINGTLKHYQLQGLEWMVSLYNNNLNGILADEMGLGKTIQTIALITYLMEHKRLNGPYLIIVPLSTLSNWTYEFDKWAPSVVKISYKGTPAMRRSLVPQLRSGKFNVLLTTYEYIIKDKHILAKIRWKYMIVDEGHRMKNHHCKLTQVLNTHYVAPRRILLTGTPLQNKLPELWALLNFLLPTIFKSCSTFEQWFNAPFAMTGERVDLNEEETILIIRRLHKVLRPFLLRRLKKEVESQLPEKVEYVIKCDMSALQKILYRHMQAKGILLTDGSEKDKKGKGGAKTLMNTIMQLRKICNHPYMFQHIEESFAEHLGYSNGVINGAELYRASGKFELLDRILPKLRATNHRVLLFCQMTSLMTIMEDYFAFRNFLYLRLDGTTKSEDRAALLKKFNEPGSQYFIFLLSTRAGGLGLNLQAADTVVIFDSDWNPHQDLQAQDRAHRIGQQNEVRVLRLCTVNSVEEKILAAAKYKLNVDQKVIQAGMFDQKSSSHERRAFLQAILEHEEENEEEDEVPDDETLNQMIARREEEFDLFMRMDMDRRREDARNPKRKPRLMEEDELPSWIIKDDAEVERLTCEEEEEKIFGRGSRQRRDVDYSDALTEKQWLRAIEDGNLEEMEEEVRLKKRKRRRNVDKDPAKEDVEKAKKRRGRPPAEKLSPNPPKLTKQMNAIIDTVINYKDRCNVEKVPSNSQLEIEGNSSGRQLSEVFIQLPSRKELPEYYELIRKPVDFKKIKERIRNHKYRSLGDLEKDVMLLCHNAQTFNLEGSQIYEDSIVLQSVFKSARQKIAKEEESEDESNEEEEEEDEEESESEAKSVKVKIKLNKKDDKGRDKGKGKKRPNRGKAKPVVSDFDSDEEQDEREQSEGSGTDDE
`CCS(=O)(=O)N1CCc2ccc(C(=O)NCc3cc4nc(-c5cccc(N6C[C@@H](C)O[C@@H](C)C6)n5)ccc4cn3)cc21` returned a half-inhibitory concentration (IC50) of 3.6 nM.

`C[C@@H]1CN(c2cccc(-c3ccc4cnc(CNC(=O)c5cc(Cl)c6c(c5)N(S(C)(=O)=O)CC6)cc4n3)n2)C[C@H](C)O1`: the IC50 was 2.27 nM.

Compound `C=CCS(=O)(=O)N1CCc2ccc(C(=O)NCc3cc4nc(-c5cccc(N6C[C@@H](C)O[C@@H](C)C6)n5)ccc4cn3)cc21` displayed a 50% inhibitory concentration (IC50) of 8.14 nM.
